Laboratory results taken from ChEMBL document CHEMBL1133608 (J Med Chem, 2000).

Tests used:
D(2) dopamine receptor [1] = biological target: D(2) dopamine receptor (Rattus norvegicus, UniProt P61169, S193A); test: In vitro affinity at mutant D2 receptor (S193A) in C6 (glioma) cell membranes.; format: cell-based
D(2) dopamine receptor [2] = biological target: T1, D(2) dopamine receptor (Rattus norvegicus, UniProt P61169, S194A); test: In vitro affinity at mutant D2 receptor (S194A) in C6 (glioma) cell membranes.; format: cell-based
T1 sequence (P61169 whole entry S194A): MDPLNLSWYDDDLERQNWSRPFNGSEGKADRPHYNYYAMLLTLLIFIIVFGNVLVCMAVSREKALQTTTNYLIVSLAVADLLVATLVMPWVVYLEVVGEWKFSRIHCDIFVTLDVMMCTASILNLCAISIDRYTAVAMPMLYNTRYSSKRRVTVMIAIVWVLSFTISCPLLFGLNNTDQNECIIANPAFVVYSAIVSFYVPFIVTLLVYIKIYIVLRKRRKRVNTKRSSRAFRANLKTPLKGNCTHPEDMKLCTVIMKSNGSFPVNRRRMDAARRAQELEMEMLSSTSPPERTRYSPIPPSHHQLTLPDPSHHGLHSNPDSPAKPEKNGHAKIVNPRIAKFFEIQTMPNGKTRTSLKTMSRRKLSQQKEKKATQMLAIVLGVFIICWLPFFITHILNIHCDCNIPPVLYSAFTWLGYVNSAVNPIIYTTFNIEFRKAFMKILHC

D(2) dopamine receptor [3] = biological target: T2, D(2) dopamine receptor (Rattus norvegicus, UniProt P61169, S197A); test: In vitro affinity at mutant D2 receptor (S197A) in C6 (glioma) cell membranes.; format: cell-based
T2 sequence (P61169 whole entry S197A): as the sequence (P61169 whole entry S194A) above, with A194S, S197A counted along it

D(2) dopamine receptor [4] = biological target: D(2) dopamine receptor (Rattus norvegicus, UniProt P61169); test: biochemical; format: cell-based, C6 glioma
Chain of D(2) dopamine receptor (Rattus norvegicus, UniProt P61169) (P61169 whole entry): as the sequence (P61169 whole entry S194A) above, with A194S counted along it

D(2) dopamine receptor [5] = biological target: T1, D(2) dopamine receptor; test: biochemical; format: cell-based, C6 glioma
D(2) dopamine receptor [6] = biological target: T1, D(2) dopamine receptor; test: biochemical; format: cell-based, C6 glioma; remark: listed apart in the source
D(2) dopamine receptor [7] = biological target: T2, D(2) dopamine receptor; test: biochemical; format: cell-based, C6 glioma

Chain of D(2) dopamine receptor (Rattus norvegicus, UniProt P61169, S193A) (P61169 whole entry S193A): as the sequence (P61169 whole entry S194A) above, with S193A, A194S counted along it

Structure (SMILES) | Kd (D(2) dopamine receptor [1]) | Kd (D(2) dopamine receptor [2]) | Kd (D(2) dopamine receptor [3]) | Kd (D(2) dopamine receptor [4]) | Kd (D(2) dopamine receptor [4]; c6 glioma) | Kd (D(2) dopamine receptor [5]) | Kd (D(2) dopamine receptor [6]) | Kd (D(2) dopamine receptor [7])
CCCN1Cc2c(C)cccc2[C@@H]2c3cc(O)c(O)cc3CC[C@H]21 | 1300 nM | 400 nM | 700 nM | 300 nM | 300 nM | 1300 nM |  | 
COc1cc(CCN)ccc1O |  |  |  | 94000 nM |  | 251000 nM | 88000 nM | 225000 nM
N[C@@H]1CCc2cc(O)c(O)cc2C1 |  |  |  | 210 nM |  | 17000 nM | 450 nM | 120 nM
CN1C[C@H](C(N)=O)C=C2c3cccc4[nH]cc(c34)C[C@H]21 | 2.8 nM | 2.8 nM | 1 nM | 0.62 nM | 0.62 nM | 1.8 nM |  | 
CC(C)C[C@H]1C(=O)N2CCC[C@H]2[C@]2(O)O[C@](NC(=O)[C@@H]3C=C4c5cccc6[nH]c(Br)c(c56)C[C@H]4N(C)C3)(C(C)C)C(=O)N12 [BROMOCRIPTINE] |  |  |  | 8 nM |  | 8 nM | 17 nM | 4 nM
CCN(CC)C(=O)N[C@H]1C=C2c3cccc4[nH]cc(c34)C[C@H]2N(C)C1 [LISURIDE] |  |  |  | 0.6 nM |  | 0.3 nM | 2.3 nM | 0.4 nM
